Test results taken from patent publication US20240123078A1, “COMPOUNDS AND METHODS FOR MODULATING IMMUNE-RELATED PROTEINS” (Vividion Therapeutics, Inc., priority 2019, published 2024).

Key:
Experiment in all cases: Cysteine reactivity ABPP
Format in all cases: binding
[1] = molecular target: T1, JAK1 Tyrosine-protein kinase JAK1 C810, C817 (P23458) (Homo sapiens, UniProt P23458)
T1 construct: endogenous in cells; host or cells: primary human T cells
Protocol: (§1) Activated or expanded primary human T cells were re-suspended in RPMI (1×10^6 cells/mL) containing 10% fetal bovine serum (FBS), penicillin (100 U/mL), streptomycin ([…]), and L-glutamine (2 mM). The cells were treated with DMSO or compounds for 3 h, pelleted (524 g, 5 min), washed with PBS, and lysed by sonication (2×8 pulses). Soluble and particulate proteomic fractions were separated by ultracentrifugation (100,000 g, 45 min), and protein concentration was normalized to 1.7 mg/mL using a standard DC protein assay (Bio-Rad). The resulting proteomes were analyzed by competitive isotopic Tandem Orthogonal Proteolysis Activity-Based Protein Profiling (isoTOP-ABPP).
(§2) The heavy/light isoTOP-ABPP ratios (R values) for each unique peptide (DMSO/compound treated) were quantified with in-house CIMAGE software (Weerapana et al., 2010) using default parameters (3 MS1 acquisitions per peak and signal to noise threshold set to 2.5). Site-specific engagement of cysteine residues was assessed by blockade of IA-alkyne probe labeling. […] Ratios for unique peptide sequences were calculated for each experiment; overlapping peptides with the same modified cysteine (e.g., different charge states, elution times or tryptic termini) were grouped together and the median ratio was reported as the final ratio (R). Additionally, ratios for peptide sequences containing multiple cysteines were grouped together. When aggregating data across experimental replicates, the mean of each experimental median R was reported. The peptide ratios reported by CIMAGE were further filtered to ensure the removal or correction of low-quality ratios in each individual dataset. The quality filters applied were the following: removal of half-tryptic peptides, removal of peptides with more than one tryptic miscleaved, removal of peptides with R=20 and only a single MS2 event triggered during the elution of the parent ion, removal of non-unique peptides. Further filtering was then performed as described below for each experiment type.
(§3) Samples (500 μL, 1.7 mg/mL) were treated with iodoacetamide desthiobiotin (IA-DTB, 5 μL of 10 mM stock in DMSO, final concentration: 100 μM) for 1 h at ambient temperature. Ice-cold MeOH (500 μL) and CHCl3 (200 μL) were then added, the mixture was vortexed and centrifuged (10,000 g, 10 min, 4° C.) to afford a protein disc at the interface of CHCl3 and aqueous layers. Both layers were aspirated without perturbing the disk, which was re-suspended in cold methanol (500 μL) and CHCl3 (200 μL) by sonication. The proteins were pelleted (10,000 g, 10 min, 4° C.), and the resulting pellets were re-suspended in a buffer (90 μL) containing 9M urea, 10 mM DTT and 50 mM triethylammonium bicarbonate ( 1/20 dilution of 1.0 M stock solution, pH 8.5) by thorough pipetting up and down. The resulting mixture was heated at 65° C. for 20 min. Sample was cooled to room temp, iodoacetamide (10 μL, 500 mM solution in H2O) was added, and the samples were incubated at 37° C. for 30 min with shaking.
(§4) At individual TMT experiment level, the following filters were applied to remove low-quality peptides: removal of non-unique peptides; removal of half-tryptic peptides; removal of peptides with more than one internal miscleaved site; removal of peptides with low (<10,000) sum of reporter ion intensities for control channels, and peptides with high variation between the replicate control channels (coefficient of variance >0.5). R values (compound-treated vs. DMSO-treated) for each peptide entry were calculated using the reporter ion intensities of DMSO and compound treated TMT channels for each treatment group with a maximum ratio cap of 20. […]

[2] = molecular target: T2, KAT8 Histone acetyltransferase KAT8 C416 (Q9H7Z6) (Homo sapiens, UniProt Q9H7Z6); settings: 100
T2 construct: endogenous in cells; host or cells: primary human T cells
T2 sequence (Q9H7Z6 1-458): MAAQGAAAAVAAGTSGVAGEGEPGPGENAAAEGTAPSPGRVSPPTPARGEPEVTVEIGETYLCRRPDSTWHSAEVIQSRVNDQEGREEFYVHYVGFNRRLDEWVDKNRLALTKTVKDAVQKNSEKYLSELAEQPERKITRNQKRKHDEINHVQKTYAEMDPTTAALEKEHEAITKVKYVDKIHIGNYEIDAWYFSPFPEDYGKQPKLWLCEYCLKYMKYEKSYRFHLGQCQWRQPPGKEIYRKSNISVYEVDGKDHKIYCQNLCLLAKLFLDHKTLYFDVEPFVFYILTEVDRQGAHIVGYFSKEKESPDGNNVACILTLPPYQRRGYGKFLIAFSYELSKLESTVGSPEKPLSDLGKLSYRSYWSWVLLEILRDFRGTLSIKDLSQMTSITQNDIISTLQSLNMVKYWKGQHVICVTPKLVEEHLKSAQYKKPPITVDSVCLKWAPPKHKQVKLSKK
Protocol: as §1, §2, §3, §4

[3] = molecular target: T3, PDIA3 Protein disulfide-isomerase A3 C57, C60 (P30101) (Homo sapiens, UniProt P30101)
T3 construct: endogenous in cells; host or cells: primary human T cells
T3 sequence (P30101 25-505): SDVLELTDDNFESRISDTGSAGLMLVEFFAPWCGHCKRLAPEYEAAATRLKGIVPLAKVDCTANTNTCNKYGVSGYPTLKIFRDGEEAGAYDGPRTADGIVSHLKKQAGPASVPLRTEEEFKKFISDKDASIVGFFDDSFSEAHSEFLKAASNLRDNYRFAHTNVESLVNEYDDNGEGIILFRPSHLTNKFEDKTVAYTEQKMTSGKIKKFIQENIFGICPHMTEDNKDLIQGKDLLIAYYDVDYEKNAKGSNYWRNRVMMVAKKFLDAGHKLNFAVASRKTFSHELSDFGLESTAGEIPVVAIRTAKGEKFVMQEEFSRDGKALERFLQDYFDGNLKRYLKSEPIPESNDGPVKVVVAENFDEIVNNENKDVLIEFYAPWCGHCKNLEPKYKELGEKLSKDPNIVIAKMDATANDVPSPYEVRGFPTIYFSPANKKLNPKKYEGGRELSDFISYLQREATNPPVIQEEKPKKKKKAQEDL
Protocol: as §1, §2, §3, §4

[4] = molecular target: T4, PFKFB3 6-phosphofructo-2-kinase/fructose-2,6-bisphosphatase 3 C155 (Q16875) (Homo sapiens, UniProt Q16875)
T4 construct: endogenous in cells; host or cells: primary human T cells
Protocol: as §1, §2, §3, §4

[5] = molecular target: T5, TRANK1 TPR and ankyrin repeat-containing protein 1 C1319 (O15050) (Homo sapiens, UniProt O15050)
T5 construct: Soluble and particulate proteomic fractions were separated by ultracentrifugation; endogenous in cells; host or cells: primary human T cells
Protocol: as §1, §2, §3, §4

[6] = molecular target: T6, TYK2 Non-receptor tyrosine-protein kinase TYK2 C838 (P29597) (Homo sapiens, UniProt P29597)
T6 construct: endogenous in cells; host or cells: primary human T cells
Protocol: as §1, §2, §3, §4

T1 sequence (P23458 whole entry): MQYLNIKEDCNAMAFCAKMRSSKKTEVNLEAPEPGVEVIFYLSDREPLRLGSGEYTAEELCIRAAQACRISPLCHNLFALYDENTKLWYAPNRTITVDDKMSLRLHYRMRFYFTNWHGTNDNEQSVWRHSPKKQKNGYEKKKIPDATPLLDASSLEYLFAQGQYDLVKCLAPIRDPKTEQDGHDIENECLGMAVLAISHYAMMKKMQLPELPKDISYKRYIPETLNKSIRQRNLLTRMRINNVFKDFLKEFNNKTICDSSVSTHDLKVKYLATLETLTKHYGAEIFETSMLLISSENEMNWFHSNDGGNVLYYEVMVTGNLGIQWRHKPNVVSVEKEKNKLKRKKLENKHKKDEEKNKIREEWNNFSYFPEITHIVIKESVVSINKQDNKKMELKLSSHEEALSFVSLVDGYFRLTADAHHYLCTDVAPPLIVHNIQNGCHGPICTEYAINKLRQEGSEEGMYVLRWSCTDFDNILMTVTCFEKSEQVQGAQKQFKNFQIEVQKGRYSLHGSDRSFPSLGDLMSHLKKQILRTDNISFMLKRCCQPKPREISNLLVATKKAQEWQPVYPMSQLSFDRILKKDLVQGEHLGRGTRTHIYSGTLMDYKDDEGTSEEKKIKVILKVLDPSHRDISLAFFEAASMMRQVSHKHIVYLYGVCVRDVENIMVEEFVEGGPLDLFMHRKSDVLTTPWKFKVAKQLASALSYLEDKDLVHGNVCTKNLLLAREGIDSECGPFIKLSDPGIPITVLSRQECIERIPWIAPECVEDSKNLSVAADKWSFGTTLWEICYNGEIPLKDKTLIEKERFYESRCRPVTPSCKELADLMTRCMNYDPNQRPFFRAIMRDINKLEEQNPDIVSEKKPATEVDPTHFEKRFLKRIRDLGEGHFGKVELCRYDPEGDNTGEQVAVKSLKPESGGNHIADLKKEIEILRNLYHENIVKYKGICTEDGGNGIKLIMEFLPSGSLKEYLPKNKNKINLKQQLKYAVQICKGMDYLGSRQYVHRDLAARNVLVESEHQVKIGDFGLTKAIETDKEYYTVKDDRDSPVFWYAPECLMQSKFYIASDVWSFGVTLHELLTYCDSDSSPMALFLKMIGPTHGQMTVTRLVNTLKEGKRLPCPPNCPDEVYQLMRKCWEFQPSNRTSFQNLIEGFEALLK
T4 sequence (Q16875 whole entry, one chain of several): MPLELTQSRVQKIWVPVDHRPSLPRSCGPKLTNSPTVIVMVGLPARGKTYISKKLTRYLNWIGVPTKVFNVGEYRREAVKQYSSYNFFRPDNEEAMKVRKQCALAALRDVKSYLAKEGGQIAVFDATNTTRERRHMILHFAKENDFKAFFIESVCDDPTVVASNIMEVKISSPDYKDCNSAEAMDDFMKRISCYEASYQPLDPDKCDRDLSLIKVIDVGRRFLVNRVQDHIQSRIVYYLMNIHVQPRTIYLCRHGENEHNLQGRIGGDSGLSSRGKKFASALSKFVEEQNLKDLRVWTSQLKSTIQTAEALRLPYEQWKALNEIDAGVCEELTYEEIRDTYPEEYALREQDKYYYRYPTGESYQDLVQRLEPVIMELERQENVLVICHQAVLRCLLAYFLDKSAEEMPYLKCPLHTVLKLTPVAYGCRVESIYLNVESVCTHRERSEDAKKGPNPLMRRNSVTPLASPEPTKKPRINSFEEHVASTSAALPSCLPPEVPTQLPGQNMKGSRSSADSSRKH
T6 sequence (P29597 whole entry): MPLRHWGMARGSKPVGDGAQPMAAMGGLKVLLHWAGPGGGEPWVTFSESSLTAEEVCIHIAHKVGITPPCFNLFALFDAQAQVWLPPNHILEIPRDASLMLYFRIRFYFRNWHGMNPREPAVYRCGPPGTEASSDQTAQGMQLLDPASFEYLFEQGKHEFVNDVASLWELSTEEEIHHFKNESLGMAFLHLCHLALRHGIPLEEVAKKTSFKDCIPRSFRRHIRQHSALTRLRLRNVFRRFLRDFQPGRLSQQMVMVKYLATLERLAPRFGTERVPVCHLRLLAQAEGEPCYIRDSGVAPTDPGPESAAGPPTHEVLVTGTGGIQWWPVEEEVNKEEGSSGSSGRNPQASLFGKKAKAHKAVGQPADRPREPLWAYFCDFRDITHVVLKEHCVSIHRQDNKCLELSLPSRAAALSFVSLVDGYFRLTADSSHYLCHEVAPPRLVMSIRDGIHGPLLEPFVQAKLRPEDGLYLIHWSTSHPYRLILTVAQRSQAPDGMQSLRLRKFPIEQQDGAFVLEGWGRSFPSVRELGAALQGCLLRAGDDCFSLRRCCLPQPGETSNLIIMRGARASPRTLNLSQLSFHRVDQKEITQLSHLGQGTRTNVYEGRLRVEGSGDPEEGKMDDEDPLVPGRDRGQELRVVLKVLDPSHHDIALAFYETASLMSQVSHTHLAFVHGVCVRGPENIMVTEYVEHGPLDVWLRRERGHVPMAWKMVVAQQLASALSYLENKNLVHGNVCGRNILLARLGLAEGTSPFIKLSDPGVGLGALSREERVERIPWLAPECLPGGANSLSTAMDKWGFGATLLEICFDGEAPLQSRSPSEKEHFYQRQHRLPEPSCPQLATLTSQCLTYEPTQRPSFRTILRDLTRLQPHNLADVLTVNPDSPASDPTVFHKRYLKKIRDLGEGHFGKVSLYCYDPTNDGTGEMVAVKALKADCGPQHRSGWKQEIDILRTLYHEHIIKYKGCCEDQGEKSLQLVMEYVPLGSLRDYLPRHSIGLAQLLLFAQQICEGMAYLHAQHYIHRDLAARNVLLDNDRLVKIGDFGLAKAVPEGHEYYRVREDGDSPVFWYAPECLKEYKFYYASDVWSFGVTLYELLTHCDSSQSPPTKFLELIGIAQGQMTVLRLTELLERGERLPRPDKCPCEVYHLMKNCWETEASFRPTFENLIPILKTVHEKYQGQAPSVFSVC

SMILES	Cysteine reactivity proteomic data ([1]; 100 μM)	Cysteine reactivity proteomic data ([1]; 500 μM)	Cysteine reactivity proteomic data [2]	Cysteine reactivity proteomic data [3]; 100	Cysteine reactivity proteomic data ([4]; 100 μM)	Cysteine reactivity proteomic data ([4]; 500 μM)	Cysteine reactivity proteomic data [5]; 100	Cysteine reactivity proteomic data ([6]; 100 μM)	Cysteine reactivity proteomic data ([6]; 500 μM)	Cysteine reactivity proteomic data ([3]; 500 μM)	Cysteine reactivity proteomic data ([5]; 500 μM)
O=C(CCl)N1CCN(S(=O)(=O)c2ccc(-c3ccncc3)cc2)CC1 [Compound B9]	18.7286	90.3525	67.98	61.24	26.69	90.3507	82.88	78.9759	98.8468		
C=CC(=O)N(Cc1cccc(Cl)c1Cl)c1ccc(Oc2ccccc2)c(C(F)(F)F)c1 [Compound K4]		39.2015				−24.3435			22.4158	7.07	6.5
